Measurements reported in paper PMC6385203, “Mutations in the palm domain disrupt modulation of acid-sensing ion channel 1a currents by neuropeptides” (Scientific Reports, 2019).
Peptide text beside a SMILES is read from it.

Target: T1, ASIC1a F302A (Homo sapiens, UniProt P78348, F302A)
T1 construct: expressed in transfected cells; host or cells: Xenopus laevis oocytes injected with cRNA
T1 sequence (P78348 1-528 F302A): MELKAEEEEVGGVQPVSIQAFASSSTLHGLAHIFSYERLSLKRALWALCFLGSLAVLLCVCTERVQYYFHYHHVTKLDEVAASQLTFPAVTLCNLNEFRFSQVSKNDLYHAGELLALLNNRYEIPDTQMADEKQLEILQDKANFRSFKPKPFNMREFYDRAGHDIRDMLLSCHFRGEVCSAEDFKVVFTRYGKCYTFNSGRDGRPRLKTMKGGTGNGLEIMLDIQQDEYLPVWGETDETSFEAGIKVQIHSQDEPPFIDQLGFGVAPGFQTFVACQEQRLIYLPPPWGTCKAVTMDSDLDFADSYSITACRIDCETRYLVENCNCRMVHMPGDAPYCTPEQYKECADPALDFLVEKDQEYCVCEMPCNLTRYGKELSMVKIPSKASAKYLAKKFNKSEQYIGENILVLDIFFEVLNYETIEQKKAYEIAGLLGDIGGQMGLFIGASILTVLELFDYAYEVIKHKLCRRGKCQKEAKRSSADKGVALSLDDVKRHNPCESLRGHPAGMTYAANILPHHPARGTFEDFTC
Assay: Isust/Ipeak, TEVC in Xenopus oocytes
Type: cell-based
Conditions: pH5, n = 8–10, mean ± SEM, read-out: EC50 of FRRFa-mediated sustained current induction
Description: To scan the pocket and predicted entrance area with mutagenesis, we chose the residues with a potential to form hydrophobic (Ile312, Val187), aromatic (Phe 257, Phe301, Phe302) or electrostatic (Glu254, Asp303, Ser199, Asp253, Glu315) interactions with the peptide. For this analysis, we used mutation to Ala, and complemented the scan with mutation to Cys and subsequent chemical modification only for a selected residue. […] Phe302 is part of a loop connecting palm and thumb domains in the close neighbourhood of the thumb base. The observed increased Isust/Ipeak ratio of F302A (Fig. 4b,e) could simply be due to a better accessibility of the cavity of the putative RFa binding site in the thumb base, because Phe302 has a larger side chain than has Ala to which it was mutated. To test this hypothesis, we mutated Phe302 to Cys and exposed the mutant to the sulfhydryl reagent trimethylammonium-methyl methanethiosulfonate ([…]; 1 mM during 3 min) before the exposure to FRRFa. […]
Electrophysiological measurements were performed 1–2 days after cRNA injection. Ion currents were recorded using two-electrode voltage-clamp at a holding potential of −60 mV with a Dagan TEV-200 amplifier (Minneapolis, MN). […] The amplitude of the sustained current was measured in the last two seconds of the pH5 perfusion. […]

Question: Which EC50 does the source give for `N=C(N)NCCC[C@H](NC(=O)[C@H](CCCNC(=N)N)NC(=O)[C@@H](N)Cc1ccccc1)C(=O)N[C@@H](Cc1ccccc1)C(N)=O` [FRRFa, Phe-Arg-Arg-Phe-amide] (H-FRRF-NH2) here?
Answer: 11 ± 2 µM
